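Five compound concentrations were applied to cells in 96-well plates for 48 hours; endpoints were derived by simple linear interpolation of the resulting dose-response curve. At the GI50, growth is halved.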 Activity calls are given as the source filed them. Cut-off read from the data, not from the text of the source: active = GI50 up to about 1.1 µM and inactive = higher. Some results are limits rather than exact numbers.

Some test systems named below: DLD-1; DMS-114; DMS-273; HOP-18; KM-20L2; LXFL 529; RXF 631; SNB-78; XF498.
Holding throughout (assay): growth of human tumour cells (NCI), 48 h

As to `COc1ccc(COC2CC(OC)OC(C)C2OC(=O)c2ccccc2)cc1` (stereo not drawn), the GI50 was 18.7 µM (inactive) in the experiment on DLD-1; 26 µM (inactive) with DMS-114; 39.4 µM (inactive) in the experiment on DMS-273; > 100 µM (inactive) in the experiment on HOP-18; 14.7 µM (inactive) with KM-20L2; 26.5 µM (inactive) in the experiment with LXFL 529. Further, the GI50 in the experiment on RXF 631 was 30.7 µM (inactive); with SNB-78, 41.7 µM (inactive); in the experiment with XF498, 21.7 µM (inactive).

`Cc1cc(S(=O)(=O)O)c(NC(=O)C(=O)Cc2cc(=O)oc3cc(O)ccc23)cc1Cl`: the GI50 in the experiment on DLD-1, in the experiment with DMS-114, in the experiment on DMS-273, in the experiment on HOP-18, with KM-20L2 and in the experiment on RXF 631 was > 100 µM (inactive) each time.

As for `Cc1cccc2c1Sc1ccccc1C2NC(=O)CCN(C)C` (stereo not drawn), the GI50 with DLD-1, in the experiment on DMS-114, with DMS-273, in the experiment on KM-20L2, in the experiment with LXFL 529 and with SNB-78 was > 100 µM (inactive) each time.

As to `CCOC(=O)C(Cc1cc(OC)c(CC(C(=O)OCC)C(=O)OCC)cc1OC)C(=O)OCC`, the GI50 was > 100 µM (inactive) in the experiment with DLD-1; > 100 µM (inactive) in the experiment with DMS-114; > 100 µM (inactive) in the experiment on DMS-273; > 100 µM (inactive) in the experiment on KM-20L2; > 100 µM (inactive) with LXFL 529; 57.9 µM (inactive) in the experiment with SNB-78. Besides, the GI50 with XF498 is 21.6 µM (inactive).

For the compound `CC(C)c1ccccc1NC(=O)C(=O)Cc1nc2ccccc2s1`, the GI50 with DMS-114, with DMS-273, with HOP-18, with KM-20L2, in the experiment with LXFL 529 and in the experiment with RXF 631 was > 100 µM (inactive) each time. In addition, the GI50 in the experiment with SNB-78 was > 100 µM (inactive).

On to `COc1cccc(C2CC23C(=O)NC(=O)NC3=O)c1` (stereo not drawn), for which the GI50 in the experiment with DMS-114, in the experiment with DMS-273, with KM-20L2, in the experiment with LXFL 529, in the experiment on SNB-78 and in the experiment on XF498 was > 100 µM (inactive) throughout.

For the compound `CC(C1=CC=C2[C@@H]3CCC4CC(N(C)C)CC[C@]4(C)C3CC[C@]12C)N(C)C=O` (stereo partly drawn), the GI50 was > 100 µM (inactive) in the experiment with DLD-1; 91.6 µM (inactive) in the experiment on DMS-114; > 100 µM (inactive) with DMS-273; > 100 µM (inactive) with HOP-18; > 100 µM (inactive) in the experiment on LXFL 529.

Turning to `C=C(CCCCC)CN1CCCC1C(C)=O` (stereo not drawn), the GI50 in the experiment on DLD-1 is 24.7 µM (inactive); in the experiment with DMS-114 it was 15 µM (inactive); in the experiment with DMS-273 it was 21.5 µM (inactive); with HOP-18, 28.9 µM (inactive); in the experiment with KM-20L2 it was 29.4 µM (inactive); in the experiment with LXFL 529, 27.3 µM (inactive). The GI50 was 26.1 µM (inactive) in the experiment on SNB-78 and 15 µM (inactive) with XF498.

With `CC1OC(CC(=O)O)CC2=C1C(=O)c1c(O)cccc1C2=O` (stereo not drawn) [NANAOMYCIN], the GI50 with DLD-1 was 0.0192 µM (active); in the experiment with DMS-114 it was 0.129 µM (active); with DMS-273, 0.212 µM (active); in the experiment on HOP-18, 2.41 µM (inactive); with KM-20L2, 0.225 µM (active); with LXFL 529 it was 0.0851 µM (active). The values for the GI50 with RXF 631, in the experiment with SNB-78 and in the experiment with XF498 were 0.6 µM (active), 0.13 µM (active) and 0.166 µM (active), respectively.

For `c1ccc2c(c1)cc1n2CC2CN=NC12` (stereo not drawn), the GI50 in the experiment with DLD-1, in the experiment with DMS-273, with KM-20L2, in the experiment with LXFL 529, with RXF 631 and in the experiment on SNB-78 was > 100 µM (inactive) throughout.

Consider `CC1=CCP(C(F)(F)F)P(C(F)(F)F)C1` (stereo not drawn), for which the GI50 in the experiment on DLD-1, in the experiment with DMS-114, with HOP-18, with KM-20L2, with LXFL 529 and in the experiment with RXF 631 was > 100 µM (inactive) each time. Also, the GI50 in the experiment on SNB-78 is > 100 µM (inactive).

For `CCC1CN2CCc3cc(OC)c(OC)cc3C2CC1CC1c2cc(OC)c(OC)cc2CCN1C(=O)CNC(=O)OC(C)(C)C` (stereo not drawn), the GI50 with DLD-1 was 4.67 µM (inactive); in the experiment on DMS-114, 3.8 µM (inactive); in the experiment with DMS-273, 12 µM (inactive); in the experiment on HOP-18, 23.3 µM (inactive); in the experiment on KM-20L2 it was 5.08 µM (inactive); in the experiment on LXFL 529 it was 10.9 µM (inactive). Also, the GI50 was 30.3 µM (inactive) in the experiment with RXF 631, 20.5 µM (inactive) with SNB-78 and 7.53 µM (inactive) with XF498.

In the case of `COC(=O)C(=Cc1cc(OC)c(OC)c(OC)c1-c1cc2c(cc1C1(C)OCCS1)OCO2)C(=O)OC` (stereo not drawn), the GI50 in the experiment on DLD-1 is 27.6 µM (inactive); with DMS-114 it was 19.8 µM (inactive); in the experiment on DMS-273, 23.2 µM (inactive); in the experiment on KM-20L2 it was 22.3 µM (inactive); with LXFL 529, 24.1 µM (inactive); in the experiment on RXF 631 it was 31.4 µM (inactive).

Take `Cn1cc(C(=O)c2ccccc2)cc(C(=O)c2ccccc2)c1=O`: the GI50 in the experiment with DLD-1, with DMS-114, with DMS-273, in the experiment on KM-20L2, in the experiment on LXFL 529 and with RXF 631 was > 100 µM (inactive) each time. The GI50 in the experiment with SNB-78 and in the experiment with XF498 was > 100 µM (inactive) each time.

For the compound `CCOP(=O)(OCC)C1=NC=CC=CC1n1c(-c2ccccc2)nn(CC)c1=O` (stereo not drawn), the GI50 in the experiment with DLD-1, in the experiment on DMS-114, in the experiment with DMS-273, in the experiment on HOP-18, in the experiment with KM-20L2 and in the experiment with LXFL 529 was > 100 µM (inactive) throughout. Also, the GI50 in the experiment with RXF 631 is > 100 µM (inactive).

`CCOC(=O)/C(=C/c1cccc(Cl)c1)N(CC)CC`: the GI50 in the experiment on DLD-1 was 48.9 µM (inactive); in the experiment with DMS-114, 31 µM (inactive); in the experiment with HOP-18, 24.2 µM (inactive); in the experiment with LXFL 529, 46.7 µM (inactive); in the experiment on XF498, 46.3 µM (inactive).

Take `COC(=O)/C(C#N)=C1\CCC(OC)N1` (stereo not drawn): the GI50 in the experiment on DLD-1, in the experiment with DMS-114, with DMS-273, in the experiment on HOP-18, in the experiment on KM-20L2 and with LXFL 529 was > 100 µM (inactive) throughout. The GI50 in the experiment with SNB-78 and with XF498 was > 100 µM (inactive) throughout.

For `COc1ccc(/C=C2\C(=O)N(C(=O)Cc3ccccc3)N=C2C)cc1OC`, the GI50 with DMS-114, in the experiment on DMS-273, with HOP-18, in the experiment on SNB-78 and with XF498 was > 100 µM (inactive) in each case.

As to `CC1C[C@]2(C[C@@H](C)C(=O)O2)O[C@@H]2CC3(C)[C@@H]4CCC5C(C)(C)OC(=O)C[C@H]6OO[C@]4(CC[C@]3(C)C12)CC56O` (stereo partly drawn), the GI50 in the experiment on DLD-1, in the experiment with DMS-114, with DMS-273, in the experiment on HOP-18, with LXFL 529 and with SNB-78 was > 100 µM (inactive) throughout. The GI50 with XF498 was > 100 µM (inactive).

On to `Cc1nc(Nc2ccc(Cl)cc2)sc1C(=O)Nc1cccc2c(=O)[nH][nH]c(=O)c12`, for which the GI50 is 17.5 µM (inactive) in the experiment with DLD-1; 19.2 µM (inactive) in the experiment with DMS-114; 7.24 µM (inactive) in the experiment with DMS-273; 11.8 µM (inactive) with KM-20L2; 13.1 µM (inactive) in the experiment on LXFL 529; > 100 µM (inactive) with SNB-78.

Regarding `N#C/N=C(/N)NCN/C(N)=N\C#N`, the GI50 in the experiment on DLD-1 is 81.5 µM (inactive); in the experiment with DMS-114 it was > 100 µM (inactive); in the experiment with DMS-273, 58.9 µM (inactive); with HOP-18 it was > 100 µM (inactive); with KM-20L2 it was > 100 µM (inactive); in the experiment with LXFL 529, > 100 µM (inactive). Also, the GI50 in the experiment on RXF 631 and in the experiment on SNB-78 was > 100 µM (inactive) throughout.

On to `NNC(=S)N/N=C(/C(=O)Nc1ccc([N+](=O)[O-])cc1)c1nc2ccc([N+](=O)[O-])cc2nc1O`, for which the GI50 in the experiment on DLD-1 is > 100 µM (inactive); with DMS-114, 77.6 µM (inactive); in the experiment on HOP-18, > 100 µM (inactive); in the experiment with SNB-78, > 100 µM (inactive); with XF498, > 100 µM (inactive).

Consider `O=C(O)CCCCCO`, for which the GI50 in the experiment on DLD-1, with DMS-114, in the experiment with DMS-273, in the experiment with HOP-18, in the experiment on KM-20L2 and with LXFL 529 was > 100 µM (inactive) each time. The GI50 with SNB-78 and with XF498 was > 100 µM (inactive) each time.

With `CC1=C(C(=O)Nc2ccc([N+](=O)[O-])cc2)C(c2ccccc2F)C(C(=O)Nc2ccc([N+](=O)[O-])cc2)=C(C)N1`, the GI50 with DLD-1 is 8.45 µM (inactive); in the experiment on DMS-114, 5.07 µM (inactive); in the experiment on KM-20L2, 12.3 µM (inactive); in the experiment with LXFL 529 it was 6.92 µM (inactive); with RXF 631, 21.3 µM (inactive); in the experiment with XF498, 1.48 µM (inactive).

With `O=C1OC(=O)c2c1c(-c1ccccc1)nc1ccccc21`, the GI50 with DLD-1, in the experiment on DMS-114, with DMS-273, in the experiment on KM-20L2, with LXFL 529 and in the experiment on RXF 631 was > 100 µM (inactive) in each case. The GI50 in the experiment on SNB-78 and in the experiment on XF498 was > 100 µM (inactive) each time.

With `CC(=O)C1C(=O)C(=O)N(c2ccccc2C(C)C)C1=O` (stereo not drawn), the GI50 in the experiment on HOP-18, in the experiment on KM-20L2, with LXFL 529, in the experiment with SNB-78 and in the experiment on XF498 was > 100 µM (inactive) throughout.

`COc1ccc(O)cc1` [MEQUINOL]: the GI50 in the experiment with DLD-1 was > 100 µM (inactive); in the experiment on DMS-114 it was 48.4 µM (inactive); with KM-20L2 it was 28.6 µM (inactive); in the experiment on LXFL 529, 33.6 µM (inactive); with SNB-78, > 100 µM (inactive); in the experiment on XF498, > 100 µM (inactive).

These data come from ChEMBL document CHEMBL1201862, “PubChem BioAssay data set” (2004).
